From paper PMC4085797, “Synthetic Inositol Phosphate Analogs Reveal that PPIP5K2 Has a Surface-Mounted Substrate Capture Site that Is a Target for Drug Discovery” (Chemistry & Biology, 2014)
Positions count from the first letter of the chain named. Like-named read-outs stand apart in the source and are kept apart here.

Assays:
Format in all cases: biochemical
[1] = target: T1, PPIP5K2^KD (kinase domain of human PPIP5K2) (Homo sapiens, UniProt O43314); assay: ATPase activity of PPIP5K2KD (Pi release); conditions: for stimulation of ATPase activity (in words): 25 μM, wild-type enzyme, Figure 2
T1 construct: The kinase domain of human PPIP5K2 (PPIP5K2^KD; residues 1–366); made in house
T1 sequence (O43314 1-366): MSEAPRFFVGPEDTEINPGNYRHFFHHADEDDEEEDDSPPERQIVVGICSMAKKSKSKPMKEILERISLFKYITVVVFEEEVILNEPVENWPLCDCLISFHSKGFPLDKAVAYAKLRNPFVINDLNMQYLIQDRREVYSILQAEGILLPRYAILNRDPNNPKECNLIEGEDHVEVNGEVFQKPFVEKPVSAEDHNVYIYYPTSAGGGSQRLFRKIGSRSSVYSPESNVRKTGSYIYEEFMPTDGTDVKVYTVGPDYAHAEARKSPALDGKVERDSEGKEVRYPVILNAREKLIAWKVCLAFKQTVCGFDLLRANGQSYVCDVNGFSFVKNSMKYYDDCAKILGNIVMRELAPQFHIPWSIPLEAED
Experimental: (§1) The initial InsP6 concentration was either 500 nM, 70 nM, or 40 nM. Various concentrations of 2,5-di-O-Bn-InsP4 were present as indicated. Radioactivity was assessed using an in-line Flo1 detector. The ADP-driven dephosphorylation of 100 nM 1,5-[PP]2-InsP4 by PPIP5K2^KD was usually determined by a luminescence-based assay of ATP accumulation ([Riley et al., 2012; Weaver et al., 2013]). The IC50 values were determined using GraphPad Prism v6.02 (n ≥ 3). In some experiments, 1,5-[PP]2-[^3H]InsP4 dephosphorylation by PPIP5K2^KD was assayed in 50 μl buffer containing 50 mM KCl, 20 mM HEPES pH 7.0, 7 mM MgSO4, 5 mM ADP, 1 mM EDTA. Reactions were then quenched, neutralized, and analyzed with HPLC using a Partisphere SAX column ([Weaver et al., 2013]); 1 ml fractions were collected for liquid scintillation spectrometry. The ATPase activity of PPIP5K2^KD (10–270 μg/ml) was assayed from Pi release following incubation at 37°C for 120–180 min in 20 μl reaction mixtures containing 20 mM Tris/HCl, pH 7.5, 10 mM ATP, 100 mM KCl, 0.1 mM EDTA, and 13 mM MgCl2.

[2] = target: T1, PPIP5K2^KD (kinase domain of human PPIP5K2); assay: Reverse-kinase assay: ADP-driven dephosphorylation of 1,5-[PP]2-InsP4, luminescence-based assay of ATP accumulation; conditions: for IC50: 100 nM [PP]2-InsP4, key of Figure 4B, n = 3, read-out: IC50, inhibition of ADP-driven dephosphorylation of [PP]2-InsP4
Experimental: The six compounds that were selected for the dose-response curves in the assays of ATP hydrolysis (Figure 4A) were now investigated for their effects upon diphosphoinositol polyphosphate metabolism by PPIP5K2^KD (Figure 4B). We used a high-throughput reverse-kinase assay that records ATP generated from ADP during the dephosphorylation of 100 nM 1,5-[PP]2-InsP4 ([Riley et al., 2012; Weaver et al., 2013]). Each of the tested analogs inhibited [PP]2-InsP4 metabolism by PPIP5K2^KD (Figure 4B). […] However, the inhibition by 2,5-di-O-Bn-InsP4 (10) was more unexpected because due to its bulk, and its less negative charge compared to physiological substrates, we predict it to be a poor ligand for the active site of the highly specific PPIP5K2^KD ([Wang et al., 2012]). Nevertheless, its ability to inhibit reverse-kinase activity was directly confirmed by high-performance liquid chromatography (HPLC) analysis of [PP]2-[^3H]InsP4 dephosphorylation (Figures S1A–S1C available online).
as §1

PPIP5K2^KD K54A mutant = target: T2, PPIP5K2^KD K54A mutant (Homo sapiens, UniProt O43314, K54A); assay: ATPase activity of K54A mutant; conditions: Figures 7B and 7C
T2 construct: The kinase domain of human PPIP5K2 (PPIP5K2^KD; residues 1–366); made in house
T2 sequence (O43314 1-366 K54A): T1 sequence (O43314 1-366) with K54A
Experimental: as §1
Protein Expression, Purification, Crystallization and Structure Determination […]
The structure was further manually rebuilt with COOT and refined with PHENIX and
REFMAC from the CCP4 package. Ligand topology and parameter files were prepared using
the PRODRG server. The molecular graphics representations were prepared with the program […]

PPIP5K2^KD R213A mutant = target: T3, PPIP5K2^KD R213A mutant (Homo sapiens, UniProt O43314, R213A); assay: ATPase activity of R213A mutant; conditions: Figures 7B and 7C
T3 construct: The kinase domain of human PPIP5K2 (PPIP5K2^KD; residues 1–366); made in house
T3 sequence (O43314 1-366 R213A): T1 sequence (O43314 1-366) with R213A
Experimental: as §1

Row | Structure (SMILES) | stimulation of ATP hydrolysis ([1]; 25 μM analog) | stimulation of ATPase activity (in words) [1] | EC50 ([1]; dose-response, key of Figure 4A, n = 3, read-out: EC50, stimulation of ATPase activities) | inhibition of [PP]2-InsP4 metabolism (in words) ([2]; 100 nM 1,5-[PP]2-InsP4, Figure 4B) | IC50 [2] | stimulation of ATPase activity vs wild-type (in words) (PPIP5K2^KD K54A mutant) | stimulation of ATPase activity vs wild-type (in words) (PPIP5K2^KD R213A mutant) | EC50 ([1]; Figure 4A, read-out: EC50, stimulation of ATPase activity)
1 | O=C(CP(=O)(O)O)O[C@@H]1[C@@H](OP(=O)(O)O)[C@H](OP(=O)(O)O)[C@H](OCc2ccccc2)[C@H](OP(=O)(O)O)[C@H]1OP(=O)(O)O [compound 2, 2-O-benzyl-5-O-α-phosphonoacetyl-myo-inositol 1,3,4,6-tetrakisphosphate] | 9 fold | strongly activated | 550 nM | equally efficient | 420 nM | substantially impaired degree of stimulation | substantially impaired degree of stimulation | –
2 | O=P(O)(O)O[C@@H]1[C@@H](OCc2ccccc2)[C@H](OP(=O)(O)O)[C@@H](OP(=O)(O)O)[C@@H](OCc2ccccc2)[C@H]1OP(=O)(O)O [compound 10, 2,5-di-O-Bn-InsP4] | – | highest degree of ATPase activity among all of the analogs | – | – | 170 nM | substantially impaired degree of stimulation | substantially impaired degree of stimulation | 340 nM
